Data: patent US9000010B2, “Alkyl-heterocycle carbamate derivatives, their preparation and their therapeutic application” (Sanofi, priority 2010, dated 2015)

How the values were obtained:
[1] = target: T1, FAAH (Fatty Acid Amide Hydrolase) (Mus musculus, UniProt O08914); experiment: Radioenzymatic test of FAAH inhibition: hydrolysis of anandamide [ethanolamine 1-3H] by mouse brain membrane homogenates; type: biochemical; conditions: mouse brain membrane homogenate; preincubation 20 min at 25° C.; anandamide 10 μM; read-out: CI50 (concentration which inhibits the control enzymatic activity of FAAH by 50%)
T1 construct: The membrane homogenates are prepared at the time of use by homogenization of the tissues; from tissue; host or cells: mouse brain (minus the cerebellum), membrane homogenate
T1 sequence (O08914 1-579): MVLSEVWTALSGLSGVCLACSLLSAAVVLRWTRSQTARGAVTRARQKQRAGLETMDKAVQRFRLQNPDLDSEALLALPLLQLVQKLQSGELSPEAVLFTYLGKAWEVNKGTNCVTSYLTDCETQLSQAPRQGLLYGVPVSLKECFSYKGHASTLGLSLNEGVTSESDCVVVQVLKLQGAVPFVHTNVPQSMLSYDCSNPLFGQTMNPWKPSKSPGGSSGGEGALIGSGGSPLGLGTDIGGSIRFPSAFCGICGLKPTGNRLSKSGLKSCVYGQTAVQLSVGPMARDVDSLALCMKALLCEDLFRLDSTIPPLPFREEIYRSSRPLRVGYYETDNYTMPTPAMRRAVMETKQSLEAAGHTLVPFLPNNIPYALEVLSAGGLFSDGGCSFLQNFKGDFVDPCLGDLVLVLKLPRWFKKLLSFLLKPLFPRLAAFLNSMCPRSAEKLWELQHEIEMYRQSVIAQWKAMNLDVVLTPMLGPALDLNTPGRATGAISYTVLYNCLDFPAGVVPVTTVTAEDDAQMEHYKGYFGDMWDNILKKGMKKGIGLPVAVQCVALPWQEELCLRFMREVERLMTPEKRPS
Procedure: The compounds of the invention form the subject of pharmacological trials which make it possible to determine their inhibitory effect on the enzyme FAAH (Fatty Acid Amide Hydrolase).
Thus, mouse brains (minus the cerebellum) are removed and stored at −80° C. The membrane homogenates are prepared at the time of use by homogenization of the tissues using a Precellys® device in the reaction buffer (Tris-HCl 10 mM pH=8, NaCl 150 mM and ethylenediaminetetraacetic acid (EDTA) 1 mM). The enzymatic reaction is carried out in 96-well MultiScreen filtration plates in a final volume of 70 μl. Reaction buffer supplemented with bovine serum albumin free from fatty acids (BSA, 1 mg/ml) is used for the enzymatic reaction, the dilution of the compounds and the dilution of the anandamide [ethanolamine 1-^3H]. Reaction buffer comprising the BSA (43 μl/well), the diluted test compounds at different concentrations (7 μl/well comprising 1% of DMSO) and the membrane preparation (10 μl/well, i.e. 200 μg of tissue per trial) are successively added to the wells. After preincubating the compounds with the enzyme at 25° C. for 20 minutes, the reaction is initiated by the addition of anandamide [ethanolamine 1-^3H] (specific activity of 15-20 Ci/mmol) diluted with cold anandamide (10 μl/well, final concentration of 10 μM, 0.01 μCi, per trial). After incubating at 25° C. for 20 minutes, the enzymatic reaction is halted by addition of a […] active charcoal solution prepared in a 1.5M NaCl and 0.5M HCl buffer (50 μl/well). The mixture is stirred for 10 minutes and then the aqueous phase comprising the [1-^3H]ethanolamine is recovered by filtration under vacuum and counted by liquid scintillation.

SMILES	IC50 [1]	melting point
NC(=O)c1cc(COC(=O)N2CCC(CCOc3ccc(OC(F)(F)F)cc3)CC2)on1 [No. 199, 3-Carbamoylisoxazol-5-ylmethyl 4-[2-(4-{trifluoromethoxy}phenoxy)ethyl]piperidine-1-carboxylate]	0.35 µM	112 to 115 °C
O=C(OCc1nccs1)N1CCC(COc2ccc3c(Cl)cccc3c2)C1 (racemic) [No. 196, Thiazol-2-ylmethyl (+/−)-3-(5-chloronaphth-2-yloxymethyl)pyrrolidine-1-carboxylate]	0.252 µM	100 to 102 °C
CCCCOc1cccc(OCCC2CCN(C(=O)OCc3nccs3)CC2)c1 [No. 60, Thiazol-2-ylmethyl 4-[2-(3-butoxyphenoxy)ethyl]-piperidine-1-carboxylate]	0.095 µM	–

Further compounds by falling IC50 [1], results first:

IC50 [1]	melting point	SMILES
0.122 µM	138 to 140 °C	NC(=O)c1cc(COC(=O)N2CC[C@@H](COc3ccc4ccccc4c3)C2)on1 (single isomer, unassigned) [No. 200]
0.086 µM	83 to 85 °C	O=C(OCc1cscn1)N1CCC(COc2cnc3ccccc3c2)C1 (racemic) [No. 26, Thiazol-4-ylmethyl (+/−)-3-(quinolin-3-yloxymethyl)-pyrrolidine-1-carboxylate]
0.008 µM	139 to 141 °C	NC(=O)c1cc(COC(=O)N2CC[C@H](COc3ccc4ccccc4c3)C2)on1 (single isomer, unassigned) [No. 202]
